Laboratory results as given in article PMC10693550, “Programmable de novo designed coiled coil-mediated phase separation in mammalian cells” (Nature Communications, 2023).
Values belong to the molecule of their own block, whether it stands above or below them. No end group written: not given here.

What was measured:
[1] = tested on: FKBP/FRB; assay: Rapamycin-induced condensate assembly, split two-chain system with FKBP and FRB domains, NIH-3T3 cells; format: cell-based, H.sapiens; settings: 1 μM rapamycin; NIH-3T3 cells expressing Cit(S1-S3)3-SAH, BFP(S2)3-gsFKBP and FRB(S4)3-gs; none with vehicle control
Text: (§1) Our final goal was to engineer new properties into condensates and to provide regulation of CC-LLPS assembly or disassembly. […] To introduce chemically regulated assembly, we incorporated FKBP into the first chain and FRB domain into the second chain of the split protein. Upon the addition of rapamycin, those two domains heterodimerize and thus extend the length of the polypeptide.
(§2) Fig. 6 Design of chemical regulation of CC-LLPS. a One polypeptide chain of a condensate-forming pair BFP-(S2)3(S4)3-gs, was separated into two chains, each with 3 CC domains BFP-(S2)3-gs and (S4)3-gs. […] Scale bars, 10 μm.

[2] = tested on: FKBP/FRB; assay: Rapamycin-induced assembly of single-chain condensates from FKBP/FRB-fused APPAP halves, HEK293T cells; format: cell-based, H.sapiens; settings: 1 μM rapamycin; HEK293T cells expressing Cit-APPAP-gs-FKBP and FRB-APPAP-gs; none with DMSO even 1 hour post-addition
Text: as §1, §2

[3] = tested on: FKBP/FRB; assay: Rapamycin-regulated split TEVp protease dissolution of condensates, HEK293T cells; format: cell-based, H.sapiens; settings: 1 μM rapamycin; HEK293T cells with TEVp site in one condensate-forming chain and rapamycin-regulated split TEVp
Text: as §2

[4] = target: complementary peptide; assay: Isothermal titration calorimetry (ITC) of orthogonal CC peptide pairs; format: binding; settings: 50 mM Tris pH 7.5, 150 mM NaCl, 1 mM TCEP, uncertainty from Monte Carlo simulation of the fit
Description: MicroCal PEAQ-ITC (Malvern) was used to measure the equilibrium dissociation constant (Kd) of orthogonal CC pairs. A 40-µl injection syringe was filled with the peptide solution (1 mM P5f, P13f; 5.6 mM S1h or 5.4 mM S3h) in 50 mM Tris pH of 7.5, 150 mM NaCl, and 1 mM TCEP. The samples were injected into an ITC cell (volume 200 µl) filled with a complementary peptide (100 µM P6f or P14f and 560 µM S2h or 540 µM S4h) in a matching buffer through a 19-step process. The injection volumes were 2 µl and were spaced 120 s apart, except for the first priming injection of 0.4 µl with 150 s spacing. Raw thermograms were integrated with the software NITPIC[83], interaction analysis was done with SEDPHAT[84], and titration curves were visualized with a companion GUSSI software. Monte Carlo simulation for non-linear regression, aligning the model function with experimental values 1000 times was used to obtain uncertainties in the fitted model.
Supplementary Figure 2: Binding analysis between the weak 3-heptad and strong 4-heptad CC forming segment using isothermal titration calorimetry (ITC). a) For peptide pair S1h + S2h peptide concentration in 40 µl injection syringe was 5.6 mM for S1h and concentration of complementary peptide S2h in ITC cell (volume 200 µl) was 560 […]
concentration in 40 µl injection syringe was 5.4 mM S3h and concentration of complementary peptide S4h in ITC cell (volume 200 µl) was 540 µM.
± 0.5 kcal/mol. For peptide pair c) P5f + P6f and d) P13f + P14f, which are 4-heptad CC.
Peptide concentration in 40 µl injection syringe was 1 mM for P5f and P13f and concentration […]
± 0.5 µM and ΔH -13.7 +- 0.6 kcal/mol and d) Kd 2.3 ± 0.2 µM and ΔH -14.7 ± 0.6 kcal/mol.
All the peptides were dissolved in a matching buffer 50 mM Tris pH of 7.5, 150 mM NaCl, […]
(1 picture or pasted object on this page, not shown here)

[5] = target: T1, P6f; assay: ITC; MicroCal PEAQ-ITC; syringe peptide (1 mM P5f, P13f; 5.6 mM S1h or 5.4 mM S3h) injected into the cell with the complementary peptide (100 µM P6f or P14f; 560 µM S2h or 540 µM S4h); 50 mM Tris pH 7.5, 150 mM NaCl, 1 mM TCEP; concentrations of the S peptides not stated; settings: both partners purified
T1 chain: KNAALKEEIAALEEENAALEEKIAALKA

[6] = target: T2, S2h; assay: as above; settings: both partners purified
T2 chain: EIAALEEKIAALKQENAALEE

[7] = target: T3, S4h; assay: as above; settings: both partners purified
T3 chain: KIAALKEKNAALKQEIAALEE

[8] = target: T4, P14f; assay: as above; settings: both partners purified
T4 chain: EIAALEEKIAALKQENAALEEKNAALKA

[9] = 3-heptad Sh pairs, 5.6 mM S1h or 5.4 mM S3h in syringe into 560 µM S2h or 540 µM S4h in cell
[10] = 4-heptad pairs, 1 mM P5f or P13f in syringe into 100 µM P6f or P14f in cell

Molecule: CO[C@H]1C[C@@H]2CC[C@@H](C)[C@@](O)(O2)C(=O)C(=O)N2CCCC[C@H]2C(=O)O[C@H]([C@H](C)C[C@@H]2CC[C@@H](O)[C@H](OC)C2)CC(=O)[C@H](C)/C=C(\C)[C@@H](O)[C@@H](OC)C(=O)[C@H](C)C[C@H](C)/C=C/C=C/C=C/1C [rapamycin, Rapamycin]
- time after addition at which condensates started to form [1]: 20 min
- condensate formation after addition (in words) [2]: after a few minutes
- dissolution of condensates after addition (in words) [3]: dissolution of condensates after a few minutes

Molecule: ENAALEEKIAALKEKNAALKEEIAALEA [P5f-P6f]
- Kd [4, 10]: 5.9 ± 0.5 µM

Molecule: ENAALEEKIAALKEKNAALKEEIAALEA [P5f]
- Kd [5]: 5.9 ± 0.5 µM

Molecule: KIAALKEEIAALEQKNAALKE [S1h]
- Kd [6]: 2300 ± 1500 µM

Molecule: EIAALEEENAALEQKIAALKE [S3h]
- Kd [7]: 340 ± 70 µM

Molecule: KIAALKEEIAALEQKNAALKEENAALEA [P13f]
- Kd [8]: 2.3 ± 0.2 µM

Results, then the molecule that gave them:

- Kd [4, 9]: 340 ± 70 µM
Molecule: EIAALEEENAALEQKIAALKE [S3h-S4h]

- Kd [4, 9]: 2300 ± 1500 µM
Molecule: KIAALKEEIAALEQKNAALKE [S1h-S2h]

- Kd [4, 10]: 2.3 ± 0.2 µM
Molecule: KIAALKEEIAALEQKNAALKEENAALEA [P13f-P14f]
